Series [1] is described as follows: Tissue concentrations by ICP-AES after 0.1 mmol/kg i.v. in nude mice with subcutaneously implanted colon cancers (HT29, WiDr). Format: in vivo, nude mice (Balb/c nu/nu). On the procedure: a) 9 nude mice (Balb/c nu/nu) with subcutaneously implanted colon cancers (HT29, WiDr) were each administered by i.v. 0.1 mmol/kg of the mesoporphyrin derivative of example 1b (10 mmol/l dissolved in bidistilled water, pH 7.2, 37° C.). After 0.5, 3 and 24 hours the animals were killed and dissected. The tissue concentrations were determined after corresponding working-up (HNO3 conc.) by ICP-AES and calculated for % of the administered dose per gram of tissue net weight.
e) 9 nude mice (Balb/c nu/nu) with subcutaneously implanted colon cancers (HT29 and WiDr) were each administered by i.v. 0.1 mmol/kg of the deuteroporphyrin derivative of the compound according to example 1c (10 mmol/l dissolved in bidistilled water, pH 7.2, 37° C.). After 0.5, 3 and 24 hours, the animals were killed and dissected. The tissue concentrations were determined after corresponding working-up (HNO3 conc.) by ICP-AES and calculated for % of the administered dose per gram of tissue net weight. Moreover, tissue relaxation times T1 and T2 were determined (Bruker minispec pc 120).
9 nude mice (Balb/c nu/nu) with subcutaneously implanted colon cancers (HT29, WiDr) were each administered by i.v. 0.1 mmol/kg of the mesoporphyrin derivative of example 8e (10 mmol/l dissolved in bidistilled water, pH 7.2, 37° C.). After 0.5, 3 and 24 hours, the animals were killed and dissected. The tissue concentrations were determined after corresponding working-up (HNO3 conc.) by ICP-AES and calculated for % of the administered dose per gram of tissue net weight.
9 nude mice (Balb/c nu/nu) with subcutaneously implanted colon cancers (HT29, WiDr) were each administered by i.v. 0.1. mmol/kg of the mesoporphyrin derivative of example 16f (10 mmol/l dissolved in bidistilled water, pH 7.2, 37° C.). After 0.5 and 3 hours the animals were killed and dissected. The tissue concentrations were determined after corresponding working-up (HNO3 conc.) by ICP-AES and calculated for % of the administered dose per gram of tissue net weight.
9 nude mice (Balb/c nu/nu) with subcutaneously implanted colon cancers (HT29, WiDr) were each administered by i.v. 0.1 mmol/kg of the mesoporphyrin derivative of example 18d (10 mmol/l dissolved in bidistilled water, pH 7.2, 37° C.). After 0.5 and 3 hours, the animals were killed and dissected. The tissue concentrations were determined after corresponding working-up (HNO3 conc.) by ICP-AES and calculated for % of the administered dose per gram of tissue net weight.
9 nude mice (Balb/c nu/nu) with subcutaneously implanted colon cancers (HT29, WiDr) were each administered by i.v. 0.1 mmol/kg of the mesoporphyrin derivative of example 19e (10 mmol/l dissolved in bidistilled water, pH 7.2, 37° C.). After 0.5, 3 and 24 hours, the animals were killed and dissected. The tissue concentrations were determined after corresponding working-up (HNO3 conc.) by ICP-AES and calculated for % of the administered dose per gram of tissue net weight.

Assay in series [2]: as above
To be noted: 2 hours p.i. (so in the source). Format: in vivo, nude mice (Balb/c nu/nu).

Turning to “Zinc(II)-{N,N'-bis[11-carboxylato-2-oxo-4,7,10-tris-(carboxylatomethyl)-1,4,7,10-tetraazaundecyl]-3,8-bis-(2-(naphth-1-yl)-ethyl)-deuteroporphyrin-IX-13,17-diamide}, digadolinium complex, disodium salt [Example 18d]”, in series [1] (0.5 hour p.i.), the “tissue concentration, HT29 tumor” value was 1.48 ± 0.28 % of the administered dose per gram of tissue net weight; the “tissue concentration, WiDr tumor” value is reported as 1.94 ± 0.78 % of the administered dose per gram of tissue net weight; the “tissue concentration, blood” value is 24.44 ± 2.32 % of the administered dose per gram of tissue net weight; the “tissue concentration, intestine” value was 4.93 ± 0.90 % of the administered dose per gram of tissue net weight. Also, in series [1] (0.5 hour p.i.), the “tissue concentration, kidneys” value is 11.74 ± 2.38 % of the administered dose per gram of tissue net weight; the “tissue concentration, lung” value is recorded as 17.70 ± 2.50 % of the administered dose per gram of tissue net weight; the “tissue concentration, muscle” value is 0.89 ± 0.17 % of the administered dose per gram of tissue net weight; the “tissue concentration, rest of body” value is listed as 2.38 ± 0.27 % of the administered dose per gram of tissue net weight. Further, in series [1] (0.5 hour p.i.), the “tissue concentration, skin” value is 3.71 ± 0.52 % of the administered dose per gram of tissue net weight and the “tissue concentration, spleen” value was 7.52 ± 0.40 % of the administered dose per gram of tissue net weight. Besides, in series [1] (3 hours p.i.), the “tissue concentration, HT29 tumor” value is on record as 3.53 ± 0.52 % of the administered dose per gram of tissue net weight; the “tissue concentration, WiDr tumor” value is on record as 4.50 ± 0.98 % of the administered dose per gram of tissue net weight; the “tissue concentration, blood” value is 16.95 ± 1.53 % of the administered dose per gram of tissue net weight; the “tissue concentration, intestine” value was 2.31 ± 0.28 % of the administered dose per gram of tissue net weight. In series [1] (3 hours p.i.), the “tissue concentration, kidneys” value is on record as 20.41 ± 1.88 % of the administered dose per gram of tissue net weight; the “tissue concentration, liver” value was 16.89 ± 1.15 % of the administered dose per gram of tissue net weight; the “tissue concentration, lung” value is on record as 17.56 ± 3.34 % of the administered dose per gram of tissue net weight; the “tissue concentration, muscle” value is listed as 1.04 ± 0.06 % of the administered dose per gram of tissue net weight. In series [1] (3 hours p.i.), the “tissue concentration, rest of body” value is reported as 2.43 ± 0.13 % of the administered dose per gram of tissue net weight; the “tissue concentration, skin” value is 4.46 ± 0.53 % of the administered dose per gram of tissue net weight; the “tissue concentration, spleen” value is 10.82 ± 0.87 % of the administered dose per gram of tissue net weight. Moreover, the “tissue concentration, liver” value in series [2] is ~17 % of the administered dose per.

The record behind these values is patent US5849259A, “3-,8-substituted deuteroporphyrin derivatives, pharmaceutical agents containing the latter and process for their production” (priority 1992, dated 1998).
